The source of these data is patent publication US20250057963A1, “DISCOVERY OF PIPERLONGUMINE AS A NOVEL E3 LIGASE LIGAND” (University of Florida Research Foundation, Incorporated, priority 2021, published 2025).

Data set [1] deals with LNCaP prostate cancer cells and H1299 lung cancer cells. The experiment in a line: Cell killing (MTS) with or without KEAP1 siRNA knockdown. As to conditions: KEAP1 siRNA vs control siRNA 48 h; compound 0.1 mM (LNCaP) or 0.3 mM (H1299) for 24 h. The class given is cell-based, Human. As to the method:
FIGS. 19A to 19B show percentages of cell killing in LNCaP (FIG. 19A) and H1299 (FIG. 19B) cells with or without KEAP1 knockdown. LNCaP and H1299 cells were treated with control siRNA or siRNAs targeting KEAP1 for 48 h and then reseeded and treated with indicated compound (0.1 mM for LNCaP cells and 0.3 mM for H1299 cells) for 24 h. The cell viability was then determined by MTS assay. The data are presented as mean±SD from three replicate cell cultures in a representative experiment. Data are representative of two independent experiments. Statistical significance was calculated with unpaired two-tailed Student's t-tests. **P<0.01; ***P<0.001; NS: not significant.
Viability (MTS) assays in various cancer cells followed the methods described in our previous report (Khan et al., 2019). The data were expressed as average % cell viability and fitted in non-linear regression curves using GraphPad Prism 9 (GraphPad Software, La Jolla, CA, USA).

The target of data set [2] is T1, purified KEAP1 protein (Homo sapiens, UniProt Q14145).
T1 construct: made in house; host or cells: bacterial cells grown in LB and induced with IPTG
The data set is described as follows: Gel-based competitive ABPP assay with IA-alkyne. The class given is binding. As to conditions: purified His-KEAP1, serially diluted 955. On the procedure: The plasmid pet28a-His6-Keap1 for expressing His-KEAP1 was purchased from Addgene (a gift from Yimon Aye, plasmid #62454). To purify His-KEAP1, the plasmid transformed cells were grown in LB broth at 37° C. with shaking until the optical density at 600 nm reached 0.6-0.7. Isopropyl-β-D-thiogalactopyranoside (1 mM) was added to induce protein expression overnight at 16° C. Cell pellet was resuspended in lysis buffer [50 mM Tris-Hcl (pH 7.5), 150 mM NaCl, 1 mM EDTA, 0.05% NP-40, […], lx protease inhibitor, and 1 mM DTT] and lysed using sonication. The lysate was cleared by centrifugation at 20,000×g for 30 min at 4° C. and purified by using GE Healthcare His GraviTrap™ Kit (Cat. No. 45-002-016, Fisher Scientific). After elution, the proteins were concentrated by using Pierce Protein Concentrators PES, 30K MWCO (Cat. No. 88502, ThermoFisher) and then dialyzed into the buffer containing 50 mM HEPES, 150 mM NaCl, and 0.1 mM EDTA (pH 7.5).
A gel-based ABPP assay was performed as previously described with some modifications (Ward et al., 2019). Briefly, Purified His-KEAP1 ([…]) was diluted into 50 μL of PBS and 0.5 μL of either DMSO (vehicle) or indicated compound was added to incubate at 25° C. for 1 h, then the samples were treated with 20 µM IA-Alkyne (Cat. No. 7015, Tocris, prepared in DMSO) at 25° C. for 1 h. […]

T1 sequence (Q14145 whole entry): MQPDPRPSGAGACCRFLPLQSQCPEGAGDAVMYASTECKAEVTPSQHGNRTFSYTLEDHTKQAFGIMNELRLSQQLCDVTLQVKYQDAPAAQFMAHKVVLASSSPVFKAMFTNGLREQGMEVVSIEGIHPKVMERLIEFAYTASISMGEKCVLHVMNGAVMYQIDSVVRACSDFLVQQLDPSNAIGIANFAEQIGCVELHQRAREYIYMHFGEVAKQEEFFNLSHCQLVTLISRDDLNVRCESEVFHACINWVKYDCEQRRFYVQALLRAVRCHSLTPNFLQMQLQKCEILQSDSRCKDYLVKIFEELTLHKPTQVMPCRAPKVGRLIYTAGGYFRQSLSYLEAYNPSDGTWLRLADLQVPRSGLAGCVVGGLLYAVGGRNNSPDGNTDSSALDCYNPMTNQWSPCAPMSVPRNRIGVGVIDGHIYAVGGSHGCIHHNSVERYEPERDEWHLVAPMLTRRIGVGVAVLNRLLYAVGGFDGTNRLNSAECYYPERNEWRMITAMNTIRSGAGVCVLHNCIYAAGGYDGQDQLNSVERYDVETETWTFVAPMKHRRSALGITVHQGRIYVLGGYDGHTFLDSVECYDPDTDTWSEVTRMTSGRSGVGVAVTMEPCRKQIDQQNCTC

Take `COc1cc(/C=C/C(=O)N2CCC=CC2=O)cc(OC)c1OCCN1CCN(C(=O)CN2CCC(C(=O)Nc3ncc(SCc4ncc(C(C)(C)C)o4)s3)CC2)CC1` [compound 955, (E)-N-(5-(((5-(tert-butyl)oxazol-2-yl)methyl)thio)thiazol-2-yl)-1-(2-(4-(2-(2,6-dimethoxy-4-(3-oxo-3-(6-oxo-3,6-dihydropyridin-1(2H)-yl)prop-1-en-1-yl)phenoxy)ethyl)piperazin-1-yl)-2-oxoethyl)piperidine-4-carboxamide]: the “effect of KEAP1 knockdown on cytotoxicity of the compound” value in data set [1] is “attenuated the cytotoxicity”. In data set [2], the “competition with IA-alkyne for covalent binding to KEAP1” value is “concentration-dependent manner”.
